From patent US12139520B2 (priority 2020, dated 2024)
Bridge positions count the residues as written; N and C are the ends. Square brackets hold non-standard residues; d marks the D form. Peptide text beside a SMILES is read from it. Cit = NC(=O)NCCC[C@H](N)C(=O)O

Legend:
[1] = Physical stability of peptide analogues (Thioflavin T fibrillation); assay type: physicochemical; conditions: maximum ThT signal normalized between hAMY maximum and buffer background; 40° C., shaking, four days; pH 7 per table title
In short: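 Peptides in 50 mM sodium acetate pH 4 or 50 mM sodium phosphate pH 7 were preincubated 1 h, mixed with 4 μM ThT, held at 40° C with 700 rpm shaking before each read. Fluorescence (ex 450/em 480 nm) every 10 min for four days; LOESS-smoothed maximum signal normalized in percent between hAMY and buffer.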

hAMY3 receptor = biological target: T1, hAMY3 receptor (Homo sapiens, UniProt O60896+P30988); experiment: cAMP assay for in vitro receptor activation, hAMY3-R; assay type: cell-based; conditions: cAMP assay, hAMY3 receptor; read-out: hAMY3R EC50
T1 sequence (P30988 25-474): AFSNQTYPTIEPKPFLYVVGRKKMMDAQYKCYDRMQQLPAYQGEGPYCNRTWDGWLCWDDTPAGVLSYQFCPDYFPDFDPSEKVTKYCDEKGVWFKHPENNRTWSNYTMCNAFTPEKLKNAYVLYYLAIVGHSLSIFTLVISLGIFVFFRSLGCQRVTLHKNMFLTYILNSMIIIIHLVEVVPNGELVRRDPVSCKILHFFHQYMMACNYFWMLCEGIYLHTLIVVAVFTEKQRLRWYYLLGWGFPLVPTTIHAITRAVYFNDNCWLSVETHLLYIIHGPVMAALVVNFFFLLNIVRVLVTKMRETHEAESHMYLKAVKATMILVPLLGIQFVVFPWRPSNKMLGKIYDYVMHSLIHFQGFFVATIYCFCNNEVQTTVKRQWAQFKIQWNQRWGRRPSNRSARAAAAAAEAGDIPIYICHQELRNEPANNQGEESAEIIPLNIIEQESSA
T1 sequence (O60896 24-148 partner): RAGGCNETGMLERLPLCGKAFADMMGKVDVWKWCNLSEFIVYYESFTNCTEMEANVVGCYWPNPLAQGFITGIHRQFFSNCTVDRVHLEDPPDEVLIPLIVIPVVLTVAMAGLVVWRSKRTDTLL
In short: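 Monoclonal cell line stably overexpressing human AMY3 receptor, 2000 cells/well in DPBS with 0.05% casein and 0.5 mM IBMX. Stimulated 30 min at room temperature with graded compound doses, human amylin as positive control. cAMP accumulation read by TR-FRET after one hour.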

Compound | Max ThT signal (%) [1] | EC50 (hAMY3 receptor)
CC[C@H](C)[C@H](NC(=O)[C@H](CCC(N)=O)NC(=O)[C@H](Cc1c[nH]cn1)NC(=O)[C@H](C)NC(=O)[C@H](CC(C)C)NC(=O)[C@H](CCCNC(=N)N)NC(=O)[C@H](CCC(N)=O)NC(=O)[C@@H](NC(=O)[C@@H](NC(=O)[C@@H]1CSSC[C@H](NC(=O)CN)C(=O)N[C@@H](CCCNC(=N)N)C(=O)N[C@@H]([C@@H](C)O)C(=O)NCC(=O)N[C@@H]([C@@H](C)O)C(=O)N1)[C@@H](C)O)C(C)C)C(=O)N[C@@H](Cc1ccc(O)cc1)C(=O)N[C@@H](CCC(N)=O)C(=O)N[C@@H](Cc1ccccc1)C(=O)N[C@H](C(=O)N[C@@H](CC(=O)O)C(=O)N[C@@H](CCCCN)C(=O)N[C@@H](CC(=O)O)C(=O)N[C@@H](CCCCN)C(=O)N[C@@H](CC(=O)O)C(=O)N[C@@H](CC(N)=O)C(=O)N[C@H](C(=O)N[C@@H](C)C(=O)N1CCC[C@H]1C(=O)N[C@@H](CCCNC(=N)N)C(=O)N[C@@H](CO)C(=O)N[C@@H](CC(N)=O)C(=O)N[C@H](C(=O)NCC(=O)N1CCC[C@H]1C(=O)N[C@@H](CCC(N)=O)C(=O)NCC(=O)N[C@@H](Cc1ccc(O)cc1)C(N)=O)C(C)C)C(C)C)[C@@H](C)O [compound 138] (H-GCRTGTCTVQRLAHQIYQFTDKDKDNVAPRSNVGPQGY-NH2; disulfide 2-7; N-terminus assumed) | 6.800% | 35 pM
CC(C)C[C@H](NC(=O)[C@H](CCCNC(N)=O)NC(=O)[C@H](CCC(N)=O)NC(=O)[C@@H](NC(=O)[C@@H](NC(=O)[C@@H]1CSSC[C@H](NC(=O)CN)C(=O)N[C@@H](CCCNC(=N)N)C(=O)N[C@@H](Cc2ccccc2)C(=O)NCC(=O)N[C@@H]([C@@H](C)O)C(=O)N1)[C@@H](C)O)C(C)C)C(=O)N[C@@H](C)C(=O)N[C@@H](Cc1c[nH]cn1)C(=O)N[C@@H](Cc1ccccc1)C(=O)N[C@@H](CC(C)C)C(=O)N[C@@H](Cc1ccc(O)cc1)C(=O)N[C@@H](CCC(N)=O)C(=O)N[C@@H](Cc1ccccc1)C(=O)N[C@H](C(=O)N[C@@H](CC(=O)O)C(=O)N[C@@H](CCCCN)C(=O)N[C@@H](CC(=O)O)C(=O)N[C@@H](CCCCN)C(=O)N[C@@H](CC(=O)O)C(=O)N[C@@H](CC(N)=O)C(=O)N[C@H](C(=O)N[C@@H](C)C(=O)N1CCC[C@H]1C(=O)N[C@@H](CCCNC(=N)N)C(=O)N[C@H](C(=O)N[C@@H](CC(N)=O)C(=O)N[C@H](C(=O)NCC(=O)N[C@@H](CO)C(=O)N[C@@H](CC(N)=O)C(=O)N[C@H](C(=O)N[C@@H](Cc1ccc(O)cc1)C(N)=O)[C@@H](C)O)C(C)C)[C@@H](C)O)C(C)C)[C@@H](C)O [compound 264] (H-GCRFGTCTVQ[Cit]LAHFLYQFTDKDKDNVAPRTNVGSNTY-NH2; disulfide 2-7) | 1.350% | 6 pM
CC(C)C[C@H](NC(=O)[C@H](CCCNC(N)=O)NC(=O)[C@H](CCC(N)=O)NC(=O)[C@@H](NC(=O)[C@@H](NC(=O)[C@@H]1CSSC[C@H](NC(=O)CN)C(=O)N[C@@H](CCCNC(=N)N)C(=O)N[C@@H](Cc2ccccc2)C(=O)NCC(=O)N[C@@H]([C@@H](C)O)C(=O)N1)[C@@H](C)O)C(C)C)C(=O)N[C@@H](C)C(=O)N[C@@H](Cc1c[nH]cn1)C(=O)N[C@@H](Cc1ccccc1)C(=O)N[C@@H](CC(C)C)C(=O)N[C@@H](Cc1ccc(O)cc1)C(=O)N[C@@H](CCC(N)=O)C(=O)N[C@@H](Cc1ccccc1)C(=O)N[C@H](C(=O)N[C@@H](CC(=O)O)C(=O)N[C@@H](CCCCN)C(=O)N[C@@H](CC(=O)O)C(=O)N[C@@H](CCCCN)C(=O)N[C@@H](CC(=O)O)C(=O)N[C@@H](CC(N)=O)C(=O)N[C@H](C(=O)N[C@@H](C)C(=O)N1CCC[C@H]1C(=O)N[C@@H](CCCNC(=N)N)C(=O)N[C@H](C(=O)N[C@@H](CC(N)=O)C(=O)N[C@H](C(=O)NCC(=O)N1CCC[C@H]1C(=O)N[C@@H](CCC(N)=O)C(=O)NCC(=O)N[C@@H](Cc1ccc(O)cc1)C(N)=O)C(C)C)[C@@H](C)O)C(C)C)[C@@H](C)O [compound 263] (H-GCRFGTCTVQ[Cit]LAHFLYQFTDKDKDNVAPRTNVGPQGY-NH2; disulfide 2-7; N-terminus assumed) | 1.050% | 5 pM
